Measurements reported in EPA's ToxValDB 9.5 (doi:10.2903/j.efsa.2015.4077).

How the values were obtained:
Anas platyrhynchos = settings: reproductive
Apis mellifera = settings: acute; oral; unspecified; mortality
Canidae = settings: chronic; duration: 1 years; oral; Dog Other; organ weight
Colinus virginianus = settings: acute, oral
Daphnia magna = settings: chronic/long-term; duration: 21 days
Oncorhynchus mykiss = settings: acute; duration: 96 hours; mortality
Pimephales promelas = settings: chronic/long-term; duration: 35 days; other
Pontoscolex corethrurus = settings: acute; duration: 14 days; mortality
Aphidius rhopalosiphi = experiment: LR50; higher = less toxic; settings: not reported; mortality
Typhlodromus pyri = experiment: LR50; higher = less toxic; settings: not reported; mortality

CC(C)N1C(=O)c2ccccc2NS1(=O)=O [Bentazone]
NOAEL (Anas platyrhynchos): 56 mg/kg-day | LD50 (Apis mellifera): > 200 µg/piece | NOAEL (Canidae): 13 mg/kg-day | LD50 (Colinus virginianus): 565 mg/kg-day | LC50 (Colinus virginianus; diet): > 500 mg/kg | NOEC (Daphnia magna): > 101 mg/L | LC50 (Oncorhynchus mykiss): > 48.6 mg/L | NOEC (Pimephales promelas): 10 mg/L | LC50 (Pontoscolex corethrurus): > 1000 mg/kg | LD50 (Rattus norvegicus; acute, M/F): 1640 mg/kg-day | NOAEL (Rattus norvegicus; chronic, duration: 2 years, other): 9 mg/kg-day | NOAEL (Rattus norvegicus; developmental, development): 100 mg/kg-day | NOAEL (Rattus norvegicus; reproduction developmental): 10.3 mg/kg-day | LR50 (Aphidius rhopalosiphi): 699 g/ha | LR50 (Typhlodromus pyri): 2800 g/ha
